Test results reported in publication PMC10489073 (Molecules, 2023).

What was measured:
In vivo pharmacokinetics = details: SD rats; for AUC(0-inf): SD
Experimental: The animal experiments were conducted under the guidelines of the “Regulations for the Administration of Affairs Concerning Experimental Animals” (revised 2017, State Council No. 676). The pharmacokinetic properties (PK) were performed in SD rats, and the procedures conducted were in accordance with institutional guidelines. Male SD rats (weighting 200 ± 20 g) fasted for 12 h and were divided into two groups, three in each group: oral administration of BC-05 (10 mg/kg) and intravenous administration of BC-05 (10 mg/kg). A total of 300 μL of a blood sample was collected through retro-orbital plexus from the rats in each group at 0 h, 0.033 h, 0.167 h, 0.5 h, 0.75 h, l h, 2 h, 4 h, 6 h, 8 h, 10 h, and 24 h. Plasma samples were placed in microcentrifuge tubes containing Li-heparin to avoid coagulant, separated by centrifugation at 12,000 rpm for 10 min, and stored at −80 °C until sample analysis. After the precipitation of proteins, samples were centrifuged at 15,000 rpm for 10 min, and the supernatant was reserved for HPLC-MS/MS analysis.

[1] = tested on: P21WAF1/Cip1 in MM1.S cells; assay: Western blot analysis, P21; type: cell-based; details: 24 h
Experimental: (§1) MM1.S cells were seeded in 6-well plates with a density of 2.5 × 10^6 cells/well. Then, the cells were cultured with 1, 2, and 4 μM BC-05 and 10 nM ixazomib, respectively. After incubation for 24 h, the cells were collected, and total proteins were extracted via RIPA containing a 2% protease inhibitor cocktail. Cell lysates were centrifugated at 4 °C, 12,000 rpm for 15 min, and the supernatants were collected and quantified with BCA assay. After being boiled at 100 °C for 10 min in a NuPAGE lithium dodecyl sulfate (LDS) sample buffer (5X), equivalent samples were separated by 12% sodium dodecyl-sulfate polyacrylamide gel electrophoresis at 120 V, transferred to immune-blot poly(vinylidene fluoride) (PVDF) membranes (Merck Millipore, Burlington, MA, USA) at 4 °C and then blocked by 5% non-fat milk in TBST for an hour. The membranes were incubated overnight at 4 °C with certain primary antibodies, which were deliquates by an antibody dilution buffer (Boster Bio, Pleasanton, CA, USA) and then washed with TBST. After incubating with a horseradish (HRP)-conjugated secondary antibody for 1 h at room temperature, the membranes were washed five times with TBST for 5 min. The images were visualized on the Tanon-5200 Chemiluminescent Imaging System via luminol reaction. […]

[2] = molecular target: T1, chymotrypsin-like (CT-L) activity of the 20S proteasome (Homo sapiens, UniProt P20618+P28074); assay: 20S proteasome inhibition assay (Proteasome-Glo Chymotrypsin-Like); type: biochemical; details: n ≥ 3, SD <20% of the mean, read-out: IC50 toward Chymotrypsin-like (CT-L)
T1 construct: purchased R&D systems, Minneapolis, MN, USA
Experimental: The 20S proteasome inhibition assay was performed using the Proteasome-Glo™ Chymotrypsin-Like Assay kit (Promega, Alexandria, NSW, Australia). Suc-LLVY-aminoluciferin is a substate that can be cleaved by the 20S proteasome, release the […] (aminoluciferin) and allow the luciferase reaction to produce light. Gradient concentration of tested compounds and the purified 20S proteasome enzyme (R&D systems, Minneapolis, MN, USA) were successively added into a transparent 96-well plate and mixed thoroughly. Then, 50 µL of a […] reagent was added. Gently mix contents with a plate shaker at 300 to 500 rpm for 30 s. Incubate at room temperature for an hour. The luminescence was recorded via the Tecan Spark multimode microplate.

[3] = tested on: cleaved caspase-3 in MM1.S cells; assay: Western blot analysis, caspase-3 cleavage; type: cell-based; details: MM1.S, 1, 2 and 4 µM, 24 h
Experimental: as §1

[4] = Acute toxicity experiment (single oral dose); type: in vivo; details: for Survival Animals: 7 days, n = 10
Description: The mouse mortality was monitored daily and recorded up to 7 days after treatment.

Human CD13 = molecular target: T2, Human CD13 (Homo sapiens, UniProt P15144); assay: CD13 inhibition assay (recombinant human aminopeptidase, L-leucine-p-nitroanilide); type: biochemical; details: mean ± SD, n ≥ 3; read-out: IC50 toward Human CD13
T2 construct: purchased R&D systems
Experimental: L-leucine-p-nitroanilide can be degraded by recombinant human aminopeptidase (R&D systems) or procine aminopeptidase (Sigma Chemical Co., St. Louis, MO, USA) and produce light absorption at 405 nm. The CD13 inhibitory activity of synthetic compounds was identified according to the degree of degradation of L-leucine-p-nitroanilide. L-leucine-p-nitroanilide was dissolved in DMSO and mixed with tested compounds in a transparent 96-well plate; then, aminopeptidase was added using phosphate solution (pH 7.2) as the assay buffer. After incubation at 37 °C for 30 min, the absorption was detected under a 405 nm wavelength via Tecan Spark multimode microplate.

HEK293 = assay: Cell proliferation analysis (MTT), normal cells; type: cell-based; details: Homo sapiens, non-malignant cell line, 48 h, read-out: Anti-proliferative activity IC50, HEK293
Experimental: (§2) All tumor cell lines in the current research were grown in a certain growth medium containing 10% FBS and 1% (v/v/v) penicillin–streptomycin–amphotericin at 37 °C in 5% CO2. Cells were seeded into 96-well plates at a density of 8 × 10^3 cells per well for tumor adherent cells and 2 × 10^4 cells per well for tumor-suspended cells in a final volume of 100 μL. After 12 h, 100 μL of various concentrations of compounds was added to each and incubated for 48 h. A 0.5% MTT solution was added per well before the intermixture was incubated for another 4 h, and formazan formed from MTT was extracted by adding […] of DMSO rocking for 15 min. Absorbance was measured at 570 nm using a Spark multimode microplate from Tecan. The IC50 values were calculated according to the inhibition ratios.

HL-7702 = assay: Cell proliferation analysis (MTT), normal cells; type: cell-based; details: Homo sapiens, L02, non-malignant cell line, 48 h, read-out: Anti-proliferative activity IC50, HL-7702
Experimental: as §2

HT-29 = assay: Cell proliferation analysis (MTT); type: cell-based; details: Homo sapiens, 48 h, read-out: Anti-proliferative activity IC50, HT-29
Experimental: as §2

ARP-1 = assay: Cell proliferation analysis (MTT); type: cell-based; details: 48 h, read-out: Anti-proliferative activity IC50, ARP-1
Experimental: as §2

[5] = male, rat, plasma, iv, i.v. at 10 mg/kg, n = 3
[6] = male, rat, plasma, oral at 10 mg/kg, n = 3

T2 sequence (P15144 whole entry): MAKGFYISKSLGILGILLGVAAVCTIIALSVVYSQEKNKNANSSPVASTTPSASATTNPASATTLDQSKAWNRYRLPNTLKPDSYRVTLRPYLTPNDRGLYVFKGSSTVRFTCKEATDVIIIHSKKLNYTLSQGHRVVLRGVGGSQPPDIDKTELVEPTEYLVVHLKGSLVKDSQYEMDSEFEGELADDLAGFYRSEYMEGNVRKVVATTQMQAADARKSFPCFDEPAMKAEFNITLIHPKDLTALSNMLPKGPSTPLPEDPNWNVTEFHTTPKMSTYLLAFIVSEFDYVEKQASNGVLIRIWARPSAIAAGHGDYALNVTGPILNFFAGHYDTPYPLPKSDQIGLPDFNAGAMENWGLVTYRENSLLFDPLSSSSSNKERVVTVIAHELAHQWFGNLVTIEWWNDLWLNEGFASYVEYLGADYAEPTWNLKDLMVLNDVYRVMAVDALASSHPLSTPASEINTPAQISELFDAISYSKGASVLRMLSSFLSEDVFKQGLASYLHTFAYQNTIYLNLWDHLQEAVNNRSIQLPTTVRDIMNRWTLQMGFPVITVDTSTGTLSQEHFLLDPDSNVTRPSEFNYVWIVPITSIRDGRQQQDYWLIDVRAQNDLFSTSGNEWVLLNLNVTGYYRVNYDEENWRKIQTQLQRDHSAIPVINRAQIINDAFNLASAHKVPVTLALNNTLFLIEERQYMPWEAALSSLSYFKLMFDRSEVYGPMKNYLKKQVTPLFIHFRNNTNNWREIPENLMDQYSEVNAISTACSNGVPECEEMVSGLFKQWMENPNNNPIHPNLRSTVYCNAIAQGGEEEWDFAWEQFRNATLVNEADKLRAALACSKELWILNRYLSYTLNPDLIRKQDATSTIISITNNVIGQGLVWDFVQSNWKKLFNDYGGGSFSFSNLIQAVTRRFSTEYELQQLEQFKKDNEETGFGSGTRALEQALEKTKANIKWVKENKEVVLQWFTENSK

In the case of `CC(C)C[C@H](NC(=O)[C@@H](O)[C@H](N)Cc1ccccc1)B1OC(=O)C(CC(=O)O)(CC(=O)O)O1` [BC-05, 2,2′-(2-((R)-1-((2S,3R)-3-amino-2-hydroxy-4-phenylbutanamido)-3-methylbutyl)-5-oxo-1,3,2-dioxaborolane-4,4-diyl)diacetic acid], the CL (In vivo pharmacokinetics; oral at 10 mg/kg, n = 3) is reported as 128 ± 11 mL/min/kg, the “AUC0–∞” value (In vivo pharmacokinetics; oral at 10 mg/kg, n = 3, 10 mg/kg) is reported as 1307.71 ± 116.74 μg/L∗h and the AUC(0-inf) (In vivo pharmacokinetics; male, rat, plasma, iv, 10 mg/kg, i.v. at 10 mg/kg, n = 3) is reported as 5150 ± 482 ng·h/mL. It also gave an AUC(0-inf) (In vivo pharmacokinetics; male, rat, plasma, po, 10 mg/kg, oral at 10 mg/kg, n = 3) of 1310 ng·h/mL, a Cmax (In vivo pharmacokinetics; [5]) of 10500 ng/mL and a Tmax (In vivo pharmacokinetics; [5]) of 0.03 h. The clearance (In vivo pharmacokinetics; [5]) was 32.5 mL/min/kg, the half-life (In vivo pharmacokinetics; [5]) was 1.72 ± 0.67 h and the bioavailability (In vivo pharmacokinetics; male, rat, plasma, oral at 10 mg/kg vs i.v. 10 mg/kg, read-out: F (oral bioavailability)) was 24.9 ± 4.32%. The Cmax (In vivo pharmacokinetics; [6]) was 373 ± 49.6 ng/mL, the Tmax (In vivo pharmacokinetics; [6]) was 2 h and the half-life (In vivo pharmacokinetics; [6]) was 2.35 ± 1.23 h. The “P21WAF1/Cip1 level (Western blot)” value [1] was “significantly upregulates”, the IC50 [2] was 1.39 µM and the “Caspase-3 cleavage (Western blot)” value [3] was “obvious”. The LD50 at 7 days ([4]; both sexes, Kunming, mouse, in vivo, single oral dose, healthy mice) was 400 µmol/kg, the “Survival Animals” value ([4]; single oral 0.27 mmol/kg) was 10/10 and the “Survival Animals” value ([4]; single oral 0.36 mmol/kg) was 6/10. For the same compound, the “Survival Animals” value ([4]; single oral 0.49 mmol/kg) was 4/10, the “Survival Animals” value ([4]; single oral 0.65 mmol/kg) was 1/10 and the “Survival Animals” value ([4]; single oral 0.86 mmol/kg) was 0/10. For the same compound, the IC50 (Human CD13) was 0.13 ± 0.01 µM, the IC50 (HEK293) was greater than 200 µM and the IC50 (HL-7702) was greater than 200 µM. The IC50 (HT-29) was 12.5 ± 1.21 µM and the IC50 (ARP-1) was 10.2 ± 1.23 µM.
